In patent publication US6887853B2, “Use of geldanamycin and related compounds for treatment of fibrogenic disorders” (The Trustees of Boston University, priority 2000, dated 2005):

Experiments:
PN1 promoter = assay: Protease nexin 1 (PN1) promoter luciferase reporter in transfected NIH 3T3 cells; assay type: cell-based, mouse; settings: NIH 3T3, TGF-β alone, 24 hour
Description: (§1) The latter contains a 4.5 kb fragment of the PN1 promoter driving the luciferase gene. Cells were incubated for 24 hours after transfection, washed 3 times with PBS and then subjected to a 24 hour treatment with geldanamycin, TGF or both, as indicated. Cells were then harvested and luciferase activities determined; Transient transfections were performed using lipofectamine (Gibco BRL) as follows: 10 μg (total) of indicated plasmid DNA was mixed with 30 μl of lipofectamine and 500 μl of serum-free DMEM (Gibco). This mixture was incubated at room temperature for 20 minutes. Ten cm dishes of sub-confluent 3T3 fibroblasts were rinsed with PBS, and 5 ml of serum free DMEM added to each dish. The DNA/lipofectamine mixture was added to each dish and incubated in the 37° CO2 incubator for 4 hours. Ten ml of DMEM with 15% serum was added and plates were incubated overnight. Medium was replaced with 10% serum at 24 hours and extracts of cells were harvested at 48 hours. Cell extracts were obtained using Passive Lysis Buffer (Promega) and assays were performed according to the Promega protocol for pGL3 luciferase vectors. Protein concentrations of all extracts were determined and each luciferase reading is normalized for protein concentration. The 4.7 kb human MMP1 promoter driving luciferase was a gift of Constance Brinckerhoff (Dartmouth Medical School) (36). […]

[1] = test system: endogenous collagen transcript in mouse 3T3 cells; assay: Northern analysis of endogenous α1(I) collagen message, NIH 3T3 fibroblasts; assay type: cell-based; settings: TGF-β alone, 24 hour
Description: FIGS. 7A-7C show fibroblasts subjected to 24-hour treatments with geldanamycin, TGF or both. After 24 hours, total RNA was harvested and subjected to northern analysis using an α1(I) collagen probe. (A) Northern analysis using NIH 3T3 fibroblasts. (B) Northern analysis using primary healthy human dermal fibroblasts. (C) Methylene blue staining of the filter in (B). Numbers represent relative intensities of the lower collagen band after normalizing bands to GAPDH band intensity; The clone corresponding to Hsp90-α was purchased as an EST from Genome Systems. […] Sequencing was performed at the Boston University DNA/Protein Sequencing Core. Northern analysis of Hsp90 to total RNA from scleroderma and healthy fibroblasts was performed as previously described (10). Geldanamycin was a generous gift of the National Cancer Institute. Geldanamycin was dissolved in dimethylsulfoxide (DMSO) and used at a final concentration of 2 μM except where indicated otherwise. DMSO without geldanamycin was added as the carrier control for all experiments using geldanamycin. The chaperone function of Hsp90 is dependent on the hydrolysis of ATP (44). […] Geldanamycin was examined to determine whether its inhibition of Hsp90 affected TGF-β activation of collagen transcription in mouse 3T3 and human dermal fibroblasts. Endogenous collagen message levels were used as a measure of TGF-β signal transduction. […]

[2] = test system: TGF-β-sensitive promoter in the 3TPlux construct; assay: TGF-β-sensitive 3TPlux luciferase reporter in transfected NIH 3T3 cells; assay type: cell-based, mouse; settings: NIH 3T3, TGF-β by itself, 24 hour
Description: as §1

[3] = test system: Smad DNA-binding activity; assay: Electrophoretic mobility shift assay, Smad binding element (SBE), 3T3 nuclear extracts; assay type: cell-based, mouse; settings: 15 minute TGF-β treatment alone
Description: (A) Cells were harvested and subjecting to electrophoretic mobility shift analysis using a Smad binding element (SBE). […] Where indicated, extracts were prepared with 100-fold higher levels of cold competitor probe. (B) Cells were subjected to 24 hour treatments with geldanamycin at various concentrations and extracts prepared and bound to control Oct-1-binding duplex oligos to monitor non-specific effects of geldanamycin.
Protein concentrations of extracts were determined using the BCA reagent (Pierce). […] The probes were end-labeled using γ-^32P-ATP and T4 polynucleotide kinase. Electrophoretic mobility shift assays (EMSA) were performed using 5 μg nuclear extract, 1 μl poly dI/dC (1 mg/ml), 0.1 ng of labeled probe (in 1 μl), and buffer G to achieve a final volume of 10 μl. Buffer G consists of 20 mM Hepes (pH 7.6), 100 mM KCl, 0.2 mM EDTA and 20% glycerol. Extracts and oligo were incubated 15 minutes at room temperature before adding loading buffer and running on a non-denaturing gel.
Electrophoretic mobility shift assays were performed to examine whether geldanamycin reduced the level of Smad DNA-binding activity in nuclear extracts. As before, cells were also subjected to TGF-β or TGF-β and geldanamycin together. […]

nuclear Smad after TGF-β treatment [3]: modest increase
Substance: TGF-β
effect of TGF-β on the expression of the PN1 promoter (PN1 promoter): little effect
increase of endogenous collagen transcript level ([1]; NIH 3T3, absence of serum): approximately 6 fold
increase of endogenous collagen transcript level ([1]; NIH 3T3, presence of serum): 2 fold
induction of the activity of the 3TPlux promoter [2]: 3.5 fold
